ChEMBL document CHEMBL4651402, “Screening of ~5500 FDA-approved drugs and clinical candidates for anti-SARS-CoV-2 activity” (2021)

Tested on: SARS-CoV-2
Assay: microbe, parasite or virus in culture
Settings: Severe acute respiratory syndrome coronavirus 2, Vero C1008, 48 h

| SMILES | IC50 | IC50 (read-out: pIC50 (converted)) |
| --- | --- | --- |
| Cc1ncc(CO)c(CO)c1O [PYRIDOXINE] | > 20 µM | > 20 µM |
| COc1ccc(CN(CCN(C)C)c2ccccn2)cc1 [PYRILAMINE] | > 20 µM | > 20 µM |
| CCc1nc(N)nc(N)c1-c1ccc(Cl)cc1 [PYRIMETHAMINE] | > 20 µM | > 20 µM |
| [O-][n+]1ccccc1S [PYRITHIONE] | > 20 µM | > 20 µM |
| CCC1(CC)C(=O)C=CNC1=O [PYRITHYLDIONE] | > 20 µM | > 20 µM |
| Cc1ncc(CSSCc2cnc(C)c(O)c2CO)c(CO)c1O [PYRITINOL] | > 20 µM | > 20 µM |
| Oc1cccc(O)c1O [PYROGALLOL] | > 20 µM | > 20 µM |
| COc1ccc2nc3cc(Cl)ccc3c(Nc3cc(CN4CCCC4)c(O)c(CN4CCCC4)c3)c2n1 [PYRONARIDINE] | > 20 µM | > 20 µM |
| Cc1cccc(C)c1NC(=O)CN1CCCC1 [PYRROCAINE] | > 20 µM | > 20 µM |
| CC(=O)OC(Cc1ccccc1)(c1ccccc1)C(C)CN1CCCC1 (stereo unspecified) [PYRROLIPHENE] | > 20 µM | > 20 µM |
| O=[N+]([O-])c1c(Cl)cccc1-c1c[nH]cc1Cl [PYRROLNITRIN] | > 20 µM | > 20 µM |
| CC(=O)C(=O)O [PYRUVATE] | > 20 µM | > 20 µM |
| C[C@@H]1C(=O)NC2=Nc3cccc(Cl)c3CN21 [QUAZINONE] | > 20 µM | > 20 µM |
| COC(=O)c1nc2cc(Cl)c3cccnc3c2o1 [QUAZOLAST] | > 20 µM | > 20 µM |
| CO[C@H]1[C@H](O)[C@@H](O)[C@H](O)[C@H](O)[C@H]1O [QUEBRACHITOL] | > 20 µM | > 20 µM |
| O=c1c(O)c(-c2ccc(O)c(O)c2)oc2cc(O)cc(O)c12 [QUERCETIN] | > 20 µM | > 20 µM |
| OC(c1ccccc1)(c1ccccc1)C1CN2CCC1CC2 (stereo unspecified) [QUIFENADINE] | > 20 µM | > 20 µM |
| CCC1NC(=O)c2cc(S(N)(=O)=O)c(Cl)cc2N1 (stereo unspecified) [QUINETHAZONE] | > 20 µM | > 20 µM |
| O=C(Oc1ccc2c(c1)CCCN2C(=O)C(Cl)Cl)c1ccco1 [QUINFAMIDE] | > 20 µM | > 20 µM |
| C=C[C@H]1CN2CC[C@H]1C[C@H]2[C@H](O)c1ccnc2ccc(OC)cc12 [QUININE] | > 20 µM | > 20 µM |
| COc1cc(NCCCC(C)N)c2ncccc2c1 (stereo unspecified) [QUINOCIDE] | > 20 µM | > 20 µM |

| SMILES | IC50 | IC50 (read-out: pIC50 (converted)) |
| --- | --- | --- |
| c1ccc2ncccc2c1 [QUINOLINE] | > 20 µM | > 20 µM |
| O=C(O)c1cccnc1C(=O)O [QUINOLINIC ACID] | > 20 µM | > 20 µM |
| CCOP(=S)(Oc1cccc2cccnc12)c1ccccc1 (stereo unspecified) [QUINTIOFOS] | > 20 µM | > 20 µM |
| c1ccc2nc(N3CCNCC3)ccc2c1 [QUIPAZINE] | > 20 µM | > 20 µM |
| CN(C)S(=O)(=O)c1ccc2c(c1)N(C1CN3CCC1CC3)c1ccccc1S2 (stereo unspecified) [QUISULTAZINE] | > 20 µM | > 20 µM |
| CC(C)(C)c1cc(NC(=O)Nc2ccc(-c3cn4c(n3)sc3cc(OCCN5CCOCC5)ccc34)cc2)no1 [QUIZARTINIB] | > 20 µM | > 20 µM |
| CCOC(=O)[C@H](C)NP(=O)(COCCn1cnc2c(NC3CC3)nc(N)nc21)N[C@@H](C)C(=O)OCC [RABACFOSADINE] | > 20 µM | > 20 µM |
| COCCCOc1ccnc(C[S+]([O-])c2nc3ccccc3[nH]2)c1C (stereo unspecified) [RABEPRAZOLE] | > 20 µM | > 20 µM |
| Cc1cnc(NC(=O)Nc2cc(Br)c(C)cc2OC[C@@H]2CNCCO2)cn1 [RABUSERTIB] | > 20 µM | > 20 µM |
| CCCCC1OC(=O)c2ccccc21 (stereo not drawn) [RAC-3-N-BUTYLPHTHALIDE] | > 20 µM | > 20 µM |
| CC(Oc1ccc(Cl)cc1Cl)C(=O)O (stereo not drawn) [RAC-DICHLORPROP] | > 20 µM | > 20 µM |
| CC(=O)SCC(Cc1ccccc1)C(=O)NCC(=O)OCc1ccccc1 (stereo unspecified) [RACECADOTRIL] | > 20 µM | > 20 µM |
| CN1CCC23CCCCC2C1Cc1ccc(O)cc13 (stereo not drawn) [RACEMORPHAN] | > 20 µM | > 20 µM |
| CNCC(O)c1ccc(O)c(O)c1 (stereo unspecified) [RACEPINEPHRINE] | > 20 µM | > 20 µM |
| CCN1CCC[C@H]1CNC(=O)c1c(O)c(Cl)cc(Cl)c1OC [RACLOPRIDE] | > 20 µM | > 20 µM |
| CC(=O)NC[C@H]1CN(c2ccc(-c3ccc(CNCc4cnn[nH]4)cc3)c(F)c2)C(=O)O1 [RADEZOLID] | > 20 µM | > 20 µM |
| Cn1c(Nc2ccc(C(F)(F)F)cc2)nc2cc(Oc3ccnc(-c4ncc(C(F)(F)F)[nH]4)c3)ccc21 [RAF-265] | > 20 µM | > 20 µM |
| O=C(Nc1ccc(Oc2ccc(Cl)cc2)c(Cl)c1)c1cc(I)cc(I)c1O [RAFOXANIDE] | > 20 µM | > 20 µM |
| C[C@H](NCc1ccc(OCc2ccccc2F)cc1)C(N)=O [RALFINAMIDE] | > 20 µM | > 20 µM |
| CC(C)(C)Cn1c(N)nc2ccc(-c3[nH]c(C(C)(C)C)nc3-c3ccc(F)cc3)nc21 [RALIMETINIB] | > 20 µM | > 20 µM |
| Cc1cccc(Cl)c1NC(=O)/C=C1\SCC(=O)N1C [RALITOLINE] | > 20 µM | > 20 µM |

| SMILES | IC50 | IC50 (read-out: pIC50 (converted)) |
| --- | --- | --- |
| O=C(c1ccc(OCCN2CCCCC2)cc1)c1c(-c2ccc(O)cc2)sc2cc(O)ccc12 [RALOXIFENE] | > 20 µM | > 20 µM |
| Cc1c(NC(C)C)c(=O)n(-c2ccccc2)n1C [RAMIFENAZONE] | > 20 µM | > 20 µM |
| Cn1cc(C(=O)[C@@H]2CCc3[nH]cnc3C2)c2ccccc21 [RAMOSETRON] | > 20 µM | > 20 µM |
| CNC(=C[N+](=O)[O-])NCCSCc1ccc(CN(C)C)o1 [RANITIDINE] | > 20 µM | > 20 µM |
| COc1ccccc1OCC(O)CN1CCN(CC(=O)Nc2c(C)cccc2C)CC1 (stereo unspecified) [RANOLAZINE] | > 20 µM | > 20 µM |
| C#CCN[C@@H]1CCc2ccccc21 [RASAGILINE] | > 20 µM | > 20 µM |
| CN(C)Cc1nccn1-c1ccc(NC(=O)c2cc(C(F)(F)F)nn2-c2ccc3onc(N)c3c2)c(F)c1 [RAZAXABAN] | > 20 µM | > 20 µM |
| O=C(NC(Cc1cc(=O)[nH]c2ccccc12)C(=O)O)c1ccc(Cl)cc1 (stereo unspecified) [REBAMIPIDE] | > 20 µM | > 20 µM |
| CNC(=O)c1cc(Oc2ccc(NC(=O)Nc3cc(C(C)(C)C)nn3-c3ccc4ncccc4c3)c(F)c2)ccn1 [REBASTINIB] | > 20 µM | > 20 µM |
| COc1ccc(-c2cc(=O)c3c(OC)cc(OCC(=O)O)cc3o2)cc1OC [RECOFLAVONE] | > 20 µM | > 20 µM |
| COc1cc(F)c(F)c(Nc2ccc(I)cc2F)c1NS(=O)(=O)C1(C[C@H](O)CO)CC1 [REFAMETINIB] | > 20 µM | > 20 µM |
| CNC(=O)c1cnn(-c2nc(N)c3ncn([C@@H]4O[C@H](CO)[C@@H](O)[C@H]4O)c3n2)c1 [REGADENOSON ANHYDROUS] | > 20 µM | > 20 µM |
| Cc1oc(-c2ccccc2)nc1CCOc1ccc(CC2C(=O)NOC2=O)cc1 (stereo unspecified) [REGLITAZAR] | > 20 µM | > 20 µM |
| CNC(=O)c1cc(Oc2ccc(NC(=O)Nc3ccc(Cl)c(C(F)(F)F)c3)c(F)c2)ccn1 [REGORAFENIB] | > 20 µM | > 20 µM |
| COc1ccc(S(=O)(=O)N2c3ccc(Cl)cc3[C@](O)(c3ccccc3Cl)[C@@H]2C(=O)N2CCC[C@H]2C(N)=O)cc1OC [RELCOVAPTAN] | > 20 µM | > 20 µM |
| CC(Cc1ccccc1)(NC(=O)CN)c1ccccc1 (stereo unspecified) [REMACEMIDE] | > 20 µM | > 20 µM |
| C=CC(=O)N(C)CCOc1c(N)ncnc1-c1cc(F)cc(NC(=O)c2ccc(C3CC3)cc2F)c1C [REMIBRUTINIB] | > 20 µM | > 20 µM |
| COc1cccc(OC)c1-c1cc(C(=O)NC2(C(=O)O)C3CC4CC(C3)CC2C4)nn1-c1ccnc2cc(Cl)ccc12 (stereo unspecified) [REMINERTANT] | > 20 µM | > 20 µM |
| CCN1CCC[C@H]1CNC(=O)c1c(OC)ccc(Br)c1OC [REMOXIPRIDE] | > 20 µM | > 20 µM |
| COc1cc(N)c(Cl)cc1C(=O)NC1CCN2CCCC1C2 (stereo unspecified) [RENZAPRIDE] | > 20 µM | > 20 µM |
| CCOc1cc(CC(=O)N[C@@H](CC(C)C)c2ccccc2N2CCCCC2)ccc1C(=O)O [REPAGLINIDE] | > 20 µM | > 20 µM |
